Experimental data reported in patent US11028095B2, “Spiro-lactam and bis-spiro-lactam NMDA receptor modulators and uses thereof” (Aptinyx Inc., priority 2016, dated 2021).

Experiments:
[1] = test system: Sciatic nerve chronic constriction nerve injury; experiment: Bennett nerve injury assay (mechanical analgesia, paw withdrawal threshold); assay type: in vivo, Sprague Dawley rats
Description: The Bennett model of mechanical analgesia is used to assess the analgesic effects of compounds as measured by paw withdrawal threshold. Bennett G J, Xie Y K, “A peripheral mononeuropathy in rat that produces disorders of pain sensation like those seen in man,” Pain 33:87-107, 1988. […] Vehicle animals receive the surgery and then receive vehicle rather than test compound. Animals were tested 1 hr, 24 h and 1 wk post-test compound or vehicle administration.
Male 2-3 month old Sprague Dawley rats were used. Harlan was the supplier for all studies. Rats were housed in Lucite cages with aspen wood chip bedding, maintained on a 12:12 light:dark cycle (lights on at 5 AM), and given ad libitum access to Purina lab chow (USA) and tap water throughout the study.
Rats were anesthetized using inhaled isoflurane (2.5%). Sciatic nerve chronic constriction nerve injury surgery was performed as previously described (Bennett and Xie, 1988). An incision (˜1.5 cm in length) was made with a scalpel blade dorsally through skin on the right hind limb, parallel and posterior to femur. Using a small pointed hemostat, the biceps femoris and gluteus superficialis muscles were separated. Using curved blunt forceps, the common sciatic nerve was isolated and exposed. For the mechanical analgesia studies, the whole sciatic nerve was ligated. Using hemostats/forceps and chromic gut (5-0), the nerve was loosely ligated with a square knot; 3 ligatures, 1 mm apart were placed on the nerve. […] Testing occurred approximately 2 weeks post-surgery.
During testing, rats were acclimated to the surface of a suspended wire mesh grid (1 cm×1 cm, with the wire being 0.3 cm in diameter) for 15-20 min Starting from the smallest, each Von Frey filament was pressed perpendicularly to the plantar surface of the affected (ipsilateral) hind paw until slightly bent and then held for 6 second. If an obvious hind paw withdrawal or a flinching behavior immediately after the withdrawal of the filament was not observed, the next larger filament was used in the same manner. In case of a response, a lower filament was used. This was repeated until six responses were collected.
For all studies, animals were baselined prior to study start to test for allodynia (defined as a paw withdrawal threshold under 5). A subset of animals was tested with gabapentin (150 mg/kg, PO) to ensure at least 50% analgesia. Once it was confirmed animals were ready for study initiation, animals were balanced across groups. All study investigators were blind to treatment conditions. Animals were dosed with 0.1, 1 or 10 mg/kg of test compound via oral gavage (PO), control sets of animals were dosed with gabapentin (150 mg/kg, PO) or vehicle (0.5% Na-CMC in 0.9% sterile saline, PO). Testing occurred 1 h post-dosing with animals retested 24 hrs and 1 week post-dosing. The percent analgesia calculations for each animal were made using the following equation: % analgesia=[(log(x)−y)/((log (z)−y)]*100, where x=the paw withdrawal threshold for the drug-treated animal in grams, y=the average of the log(x) values for the vehicle treated group, and z=the paw withdrawal threshold for naïve animals in grams (historical value of 15 used). The results for Compound AD, where the percentage of analgesia is measured at 1 hour, 24 hours, and 1 week after compound administration are as follows: for 0.1 mg/kg dose: 37.8% at 1 h, 29.7% at 24 h, and 63.1% at 1 wk; for 1 mg/kg dose: 48.8% at 1 h, 20.6% at 24 h, and 19.8% at 1 wk; and for 10 mg/kg dose: 70.3% at 1 h, 38.8% at 24 h, and 11.3% at 1 wk.

[2] = Oral pharmacokinetics (plasma, brain, CSF); assay type: in vivo; conditions: Sprague Dawley rats, per os, 10 mg/kg
Description: In another experiment, Sprague Dawley rats were dosed per os using a normal saline formulation containing 10 mg/kg of the compounds identified in the table below. Plasma, brain, and CSF samples were analyzed at various time points over a 24 hour period. The table below summarizes the results of the oral pharmacokinetics.

[3] = biological target: T1, NMDAR2A expressing HEK cell membranes (Homo sapiens, UniProt Q05586+Q12879); experiment: NMDAR agonist assay, [3H]MK-801 binding, NMDAR2A; assay type: biochemical
T1 construct: expressed in transfected cells; host or cells: HEK cells (membrane extract)
T1 sequence (Q12879 23-1464, other chains not shown): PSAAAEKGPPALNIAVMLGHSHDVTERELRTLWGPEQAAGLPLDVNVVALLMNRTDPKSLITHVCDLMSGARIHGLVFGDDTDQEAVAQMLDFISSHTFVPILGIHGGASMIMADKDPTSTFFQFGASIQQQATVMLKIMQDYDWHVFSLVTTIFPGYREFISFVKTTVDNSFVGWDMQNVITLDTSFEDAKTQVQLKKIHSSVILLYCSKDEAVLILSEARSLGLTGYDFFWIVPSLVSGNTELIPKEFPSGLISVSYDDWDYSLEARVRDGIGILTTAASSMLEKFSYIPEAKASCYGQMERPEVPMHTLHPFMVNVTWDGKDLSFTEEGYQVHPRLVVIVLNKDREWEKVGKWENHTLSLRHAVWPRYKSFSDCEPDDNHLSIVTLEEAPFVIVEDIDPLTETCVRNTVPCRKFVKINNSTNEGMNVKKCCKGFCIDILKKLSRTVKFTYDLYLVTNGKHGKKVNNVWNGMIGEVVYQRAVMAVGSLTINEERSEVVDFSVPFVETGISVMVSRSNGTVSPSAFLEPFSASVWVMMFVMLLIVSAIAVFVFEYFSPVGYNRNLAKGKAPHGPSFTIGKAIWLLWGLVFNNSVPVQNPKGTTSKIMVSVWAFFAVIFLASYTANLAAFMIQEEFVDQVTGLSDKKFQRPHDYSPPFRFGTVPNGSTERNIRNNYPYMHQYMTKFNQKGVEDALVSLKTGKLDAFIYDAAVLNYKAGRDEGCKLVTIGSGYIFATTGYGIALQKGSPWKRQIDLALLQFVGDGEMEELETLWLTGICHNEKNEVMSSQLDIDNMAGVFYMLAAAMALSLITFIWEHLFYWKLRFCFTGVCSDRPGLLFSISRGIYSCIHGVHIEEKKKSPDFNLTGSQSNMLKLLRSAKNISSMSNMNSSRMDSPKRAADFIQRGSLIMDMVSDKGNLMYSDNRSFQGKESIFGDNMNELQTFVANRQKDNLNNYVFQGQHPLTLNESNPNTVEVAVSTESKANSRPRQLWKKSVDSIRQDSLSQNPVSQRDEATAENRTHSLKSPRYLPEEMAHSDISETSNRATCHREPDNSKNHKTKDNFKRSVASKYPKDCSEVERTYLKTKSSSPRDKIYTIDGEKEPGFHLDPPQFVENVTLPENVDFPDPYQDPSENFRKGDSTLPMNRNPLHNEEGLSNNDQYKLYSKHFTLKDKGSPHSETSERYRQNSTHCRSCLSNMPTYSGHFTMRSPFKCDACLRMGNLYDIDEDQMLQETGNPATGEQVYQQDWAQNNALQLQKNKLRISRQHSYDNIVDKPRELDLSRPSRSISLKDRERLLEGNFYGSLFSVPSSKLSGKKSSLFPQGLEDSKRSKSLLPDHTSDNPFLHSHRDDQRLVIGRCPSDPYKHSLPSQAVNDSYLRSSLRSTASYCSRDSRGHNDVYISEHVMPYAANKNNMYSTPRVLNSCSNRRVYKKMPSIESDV
Description: (§1) (nonequilibrium conditions).
(§2) The baseline value was determined from the best fit curve of the DPM values modeled using the GraphPad program and the log(agonist) vs. response(three parameters) algorithm was then subtracted from all points in the dataset.

[4] = Microsomal stability (Human); assay type: in vitro ADME; conditions: human microsomes
Description: (§3) Microsomal stability of disclosed compounds was investigated. The following table indicates the percent of compound remaining after 60 minutes.

[5] = biological target: T2, NMDAR2B expressing HEK cell membranes (Homo sapiens, UniProt Q05586+Q13224); experiment: NMDAR agonist assay, [3H]MK-801 binding, NMDAR2B; assay type: biochemical
T2 construct: expressed in transfected cells; host or cells: HEK cells (membrane extract)
T2 sequence (Q13224 27-1484, other chains not shown): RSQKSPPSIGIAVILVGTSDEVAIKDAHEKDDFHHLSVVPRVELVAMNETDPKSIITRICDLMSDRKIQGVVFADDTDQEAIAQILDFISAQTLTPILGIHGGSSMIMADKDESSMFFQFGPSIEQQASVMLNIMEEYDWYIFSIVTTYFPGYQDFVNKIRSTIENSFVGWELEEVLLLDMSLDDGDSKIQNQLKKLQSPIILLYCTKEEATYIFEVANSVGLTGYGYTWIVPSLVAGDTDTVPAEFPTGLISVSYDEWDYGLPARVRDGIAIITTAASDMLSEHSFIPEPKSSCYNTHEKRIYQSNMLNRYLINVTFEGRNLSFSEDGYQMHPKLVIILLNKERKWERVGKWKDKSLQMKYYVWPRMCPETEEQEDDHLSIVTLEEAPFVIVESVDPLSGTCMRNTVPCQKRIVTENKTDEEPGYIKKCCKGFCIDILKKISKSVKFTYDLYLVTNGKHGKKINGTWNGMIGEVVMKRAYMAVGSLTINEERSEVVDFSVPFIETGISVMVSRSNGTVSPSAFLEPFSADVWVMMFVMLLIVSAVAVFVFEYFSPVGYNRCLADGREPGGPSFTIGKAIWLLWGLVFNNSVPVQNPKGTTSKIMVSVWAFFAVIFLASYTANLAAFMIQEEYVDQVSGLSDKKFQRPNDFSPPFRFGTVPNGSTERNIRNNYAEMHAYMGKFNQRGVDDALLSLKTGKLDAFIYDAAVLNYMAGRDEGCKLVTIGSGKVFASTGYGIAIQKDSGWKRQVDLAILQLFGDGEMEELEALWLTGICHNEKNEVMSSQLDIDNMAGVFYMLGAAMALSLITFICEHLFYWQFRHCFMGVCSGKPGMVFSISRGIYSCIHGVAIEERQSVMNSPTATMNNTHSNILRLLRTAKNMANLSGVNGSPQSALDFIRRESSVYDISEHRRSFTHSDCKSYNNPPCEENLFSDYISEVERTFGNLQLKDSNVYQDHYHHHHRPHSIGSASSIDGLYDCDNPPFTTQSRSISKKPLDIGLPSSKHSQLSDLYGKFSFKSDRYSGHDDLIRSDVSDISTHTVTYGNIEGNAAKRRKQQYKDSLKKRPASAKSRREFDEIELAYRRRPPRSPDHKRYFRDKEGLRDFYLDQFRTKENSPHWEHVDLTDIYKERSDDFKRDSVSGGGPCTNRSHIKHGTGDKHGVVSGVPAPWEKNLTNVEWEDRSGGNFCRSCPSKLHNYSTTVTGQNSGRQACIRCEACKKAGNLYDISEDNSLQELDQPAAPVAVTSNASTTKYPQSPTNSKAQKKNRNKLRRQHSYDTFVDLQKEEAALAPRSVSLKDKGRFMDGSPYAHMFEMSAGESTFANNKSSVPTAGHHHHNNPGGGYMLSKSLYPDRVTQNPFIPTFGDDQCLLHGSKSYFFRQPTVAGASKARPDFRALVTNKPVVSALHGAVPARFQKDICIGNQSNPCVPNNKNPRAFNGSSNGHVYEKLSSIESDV
Description: as §1, §2

[6] = Microsomal stability (Rat); assay type: in vitro ADME; conditions: rat microsomes
Description: as §3

[7] = biological target: T3, NMDAR2D expressing HEK cell membranes (Homo sapiens, UniProt O15399+Q05586); experiment: NMDAR agonist assay, [3H]MK-801 binding, NMDAR2D; assay type: biochemical
T3 construct: expressed in transfected cells; host or cells: HEK cells (membrane extract)
T3 sequence (O15399 28-1336, other chains not shown): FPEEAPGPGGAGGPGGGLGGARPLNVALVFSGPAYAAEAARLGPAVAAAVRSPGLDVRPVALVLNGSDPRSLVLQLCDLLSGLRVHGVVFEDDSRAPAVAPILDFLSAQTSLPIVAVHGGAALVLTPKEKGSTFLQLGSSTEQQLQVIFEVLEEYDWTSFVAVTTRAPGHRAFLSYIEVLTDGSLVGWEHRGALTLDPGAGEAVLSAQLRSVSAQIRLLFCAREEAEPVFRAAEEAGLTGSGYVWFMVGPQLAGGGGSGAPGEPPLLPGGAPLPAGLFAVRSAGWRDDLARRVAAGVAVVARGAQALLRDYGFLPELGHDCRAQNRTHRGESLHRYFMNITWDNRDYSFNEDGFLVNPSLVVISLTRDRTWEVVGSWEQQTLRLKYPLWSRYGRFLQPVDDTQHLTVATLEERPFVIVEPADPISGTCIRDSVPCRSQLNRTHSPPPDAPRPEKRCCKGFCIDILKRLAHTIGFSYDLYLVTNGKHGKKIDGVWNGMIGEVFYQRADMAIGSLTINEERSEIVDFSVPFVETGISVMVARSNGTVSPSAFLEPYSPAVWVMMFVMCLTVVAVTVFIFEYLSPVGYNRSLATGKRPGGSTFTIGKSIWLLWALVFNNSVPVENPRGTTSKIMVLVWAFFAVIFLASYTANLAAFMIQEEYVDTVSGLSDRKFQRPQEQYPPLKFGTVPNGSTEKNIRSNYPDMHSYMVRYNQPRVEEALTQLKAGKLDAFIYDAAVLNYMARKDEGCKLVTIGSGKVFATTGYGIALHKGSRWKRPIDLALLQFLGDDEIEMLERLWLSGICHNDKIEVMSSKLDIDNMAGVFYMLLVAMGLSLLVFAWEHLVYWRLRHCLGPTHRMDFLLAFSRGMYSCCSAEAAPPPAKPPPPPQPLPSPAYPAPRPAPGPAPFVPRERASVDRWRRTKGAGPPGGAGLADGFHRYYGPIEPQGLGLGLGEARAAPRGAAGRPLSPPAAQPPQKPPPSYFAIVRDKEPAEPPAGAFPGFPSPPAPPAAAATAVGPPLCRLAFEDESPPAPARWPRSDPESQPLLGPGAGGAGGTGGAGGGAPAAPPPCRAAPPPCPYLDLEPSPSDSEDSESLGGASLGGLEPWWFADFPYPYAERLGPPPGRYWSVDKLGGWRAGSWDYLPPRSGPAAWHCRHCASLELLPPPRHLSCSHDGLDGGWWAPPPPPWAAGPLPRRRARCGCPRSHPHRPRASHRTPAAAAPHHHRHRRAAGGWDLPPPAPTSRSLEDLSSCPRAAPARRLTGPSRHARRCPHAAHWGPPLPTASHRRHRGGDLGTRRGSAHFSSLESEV
Description: as §1, §2

[8] = biological target: T4, NMDAR2C expressing HEK cell membranes (Homo sapiens, UniProt Q05586+Q14957); experiment: NMDAR agonist assay, [3H]MK-801 binding, NMDAR2C; assay type: biochemical
T4 construct: expressed in transfected cells; host or cells: HEK cells (membrane extract)
Description: as §1, §2

Plasma stability (Human) = assay type: in vitro ADME
Description: (§4) Plasma stability of disclosed compounds was investigated. The following table indicates the percent of compound remaining after 60 minutes.

IV pharmacokinetics = assay type: in vivo; conditions: rat, in vivo, Sprague Dawley rats, 2 mg/kg, normal saline
Description: Sprague Dawley rats were dosed intravenously using a normal saline formulation containing 2 mg/kg of the compounds identified in the below table. The table below summarizes the results of the IV pharmacokinetics.

Plasma stability (Rat) = assay type: in vitro ADME
Description: as §4

CC(C)CN1[C@@]2(CC[C@@]13CNC3=O)CNC2=O [Compound AD, 5-isobutyl-2,5,8-triazadispiro[3.1.36.24]undecane-1,7-dione]
percentage of analgesia ([1]; 0.1 mg/kg PO, 1 wk after administration): 63.1%
percentage of analgesia ([1]; 0.1 mg/kg PO, 1 h after administration): 37.8%
percentage of analgesia ([1]; 0.1 mg/kg PO, 24 h after administration): 29.7%
percentage of analgesia ([1]; 1 mg/kg PO, 1 wk after administration): 19.8%
percentage of analgesia ([1]; 1 mg/kg PO, 1 h after administration): 48.8%
percentage of analgesia ([1]; 1 mg/kg PO, 24 h after administration): 20.6%
percentage of analgesia ([1]; 10 mg/kg PO, 1 wk after administration): 11.3%
percentage of analgesia ([1]; 10 mg/kg PO, 1 h after administration): 70.3%
percentage of analgesia ([1]; 10 mg/kg PO, 24 h after administration): 38.8%
CSF Cmax ([2]; CSF): 1965.2 ng/mL
Brain Cmax ([2]; brain): 1143.2 ng/mL
AUC(0-t) ([2]; rat, plasma, po): 19300 ng·h/mL
bioavailability ([2]; rat, plasma, po): 82%
Tmax ([2]; rat, plasma, po, normal saline, read-out: Tmax): 0.33 h
Cmax ([2]; rat, po, plasma, read-out: Cmax): 8560 ng/mL
EC50 ([3]; NMDAR2A: log EC50, 50 μM glutamate, [3H]MK-801 binding): < 1 nM
Emax ([3]; read-out: NMDAR2A: % maximal [3H]MK-801 binding relative to 1 mM glycine, 50 μM glutamate, relative to 1 mM glycine): < 100%
Microsomal (Human): percent of compound remaining after 60 minutes [4]: 100%
EC50 ([5]; NMDAR2B: log EC50, 50 μM glutamate, [3H]MK-801 binding): < 1 nM
Emax ([5]; read-out: NMDAR2B: % maximal [3H]MK-801 binding relative to 1 mM glycine, 50 μM glutamate, relative to 1 mM glycine): < 100%
Microsomal (Rat): percent of compound remaining after 60 minutes [6]: 100%
EC50 ([7]; NMDAR2D: log EC50, 50 μM glutamate, [3H]MK-801 binding): > 100 nM
Emax ([7]; read-out: NMDAR2D: % maximal [3H]MK-801 binding relative to 1 mM glycine): 0%
EC50 ([8]; NMDAR2C: log EC50, 50 μM glutamate, [3H]MK-801 binding): < 1 nM
Emax ([8]; read-out: NMDAR2C: % maximal [3H]MK-801 binding relative to 1 mM glycine): < 100%
Plasma (Human): percent of compound remaining after 60 minutes (Plasma stability (Human)): 83%
AUC(0-t) (IV pharmacokinetics): 4710 ng·h/mL
clearance (IV pharmacokinetics): 7.01 mL/min/kg
half-life (IV pharmacokinetics): 2.27 h
C0 (IV pharmacokinetics; read-out: C0): 2800 ng/mL
Vd (IV pharmacokinetics; read-out: Vss): 0.92 L/kg
Plasma (Rat): percent of compound remaining after 60 minutes (Plasma stability (Rat)): 88%
